From patent US10344026B2, “Compositions and methods of targeting mutant K-ras” (NANTBIO, INC., priority 2017, dated 2019)

What was measured:
Format in all cases: cell-based
[1] = system: phospho-ERK in Panc10.05 (G12D); test: In-Cell Western phospho-ERK, Panc10.05; settings: Homo sapiens, Panc1005, 1 h; Panc10.05, one hour treatment; read-out: In-Cell Western Panc10.05 (G12D) Erk (P)
How it was run: (§1)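 Read-out: imaged cellular fluorescence after phospho-ERK/phospho-Akt immunostaining; EC50 derived. Cells plated 3000/well, 18 hr 37° C, compound 1 hr, 0.5% DMSO. Full-inhibition controls: 1 uM BEZ235 (pAkt), 1 uM MEK Inhibitor II (pERK).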

[2] = system: phospho-Akt in Panc1 (G12D); test: In-Cell Western phospho-Akt, Panc1; settings: Homo sapiens, PANC-1, 1 h; Panc1, one hour treatment; read-out: In-Cell Western Panc1 (G12D) Akt (P)
How it was run: as §1

[3] = target: T1, K-Ras G12D (Homo sapiens, UniProt P01116, G12D); test: G-LISA Ras activation, 293H cells transfected with G12D mutant; settings: compound 1 hour
T1 construct: expressed in transfected cells; host or cells: 293H cells
T1 sequence (P01116 whole entry G12D): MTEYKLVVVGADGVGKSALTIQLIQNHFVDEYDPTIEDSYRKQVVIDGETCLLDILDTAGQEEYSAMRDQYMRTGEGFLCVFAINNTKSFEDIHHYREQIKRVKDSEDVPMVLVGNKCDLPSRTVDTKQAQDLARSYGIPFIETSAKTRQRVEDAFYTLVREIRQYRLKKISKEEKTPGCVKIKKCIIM
How it was run: (§2)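 Active Ras was quantified by G-LISA in lysates of 293H cells transiently expressing wild-type or mutant Ras. Compounds (3.125-25 μM) were applied for 1 hour; only wild-type transfected cells were stimulated with 100 ng/ml EGF for 2 minutes.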

[4] = system: HCC827 (K-Ras wild type cell line); test: Viability assay (CellTiterBlue, 72 hr) HCC827; settings: Homo sapiens, GI50, CellTiterBlue, HCC827 K-Ras wild-type
How it was run: (§3)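 Each line was plated at 1000 cells per well and incubated for 72 hr with compound after an 18 hr settling period. CellTiterBlue fluorescence measured the result, and GI50 was fitted relative to DMSO and tamoxifen controls.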

[5] = target: T2, wild type K-Ras (Homo sapiens, UniProt P01116); test: G-LISA Ras activation, 293H cells transfected with Ras wild-type, EGF stimulated; settings: compound 1 hour, then 100 ng/ml EGF 2 minutes
T2 construct: expressed in transfected cells; host or cells: 293H cells
T2 sequence (P01116 whole entry): as the sequence (P01116 whole entry G12D) above, with D12G counted along it
How it was run: as §2

[6] = system: phospho-ERK in Panc1 (G12D); test: In-Cell Western phospho-ERK, Panc1; settings: Homo sapiens, PANC-1, 1 h; Panc1, one hour treatment; read-out: In-Cell Western Panc1 (G12D) Erk (P)
How it was run: as §1

[7] = system: A375 (K-Ras wild type cell line); test: Viability assay (CellTiterBlue, 72 hr) A375; settings: Homo sapiens, A-375, GI50, CellTiterBlue
How it was run: as §3

[8] = system: phospho-Akt in Panc10.05 (G12D); test: In-Cell Western phospho-Akt, Panc10.05; settings: Homo sapiens, Panc1005, 1 h; Panc10.05, one hour treatment; read-out: In-Cell Western Panc10.05 (G12D) Akt (P)
How it was run: as §1

[9] = system: Panc1-G12D; test: Viability assay (CellTiterBlue, 72 hr) Panc1; settings: Homo sapiens, PANC-1, GI50, CellTiterBlue, Panc1 K-Ras G12D, read-out: 72 hr Cell Viability Panc1 (G12D)
How it was run: as §3

[10] = system: phospho-Akt in A375 (Wild-type); test: In-Cell Western phospho-Akt, A375; settings: Homo sapiens, A-375, 1 h; A375, one hour treatment; read-out: In-Cell Western A375 (Wild-type) Akt (P)
How it was run: as §1

[11] = system: phospho-ERK in HCC827 (Wild-type); test: In-Cell Western phospho-ERK, HCC827; settings: Homo sapiens, 1 h; HCC827, one hour treatment; read-out: In-Cell Western HCC827 (Wild-type) Erk (P)
How it was run: as §1

[12] = system: Ishikawa (K-Ras wild type cell line); test: Viability assay (CellTiterBlue, 72 hr) Ishikawa; settings: Homo sapiens, GI50, CellTiterBlue, Ishikawa K-Ras wild-type
How it was run: as §3

[13] = system: U87-MG (K-Ras wild type cell line); test: Viability assay (CellTiterBlue, 72 hr) U87-MG; settings: Homo sapiens, U-87 MG, GI50, CellTiterBlue, U87-MG K-Ras wild-type
How it was run: as §3

[14] = system: Panc10.05-G12D; test: Viability assay (CellTiterBlue, 72 hr) Panc10.05; settings: Homo sapiens, Panc1005, GI50, CellTiterBlue, Panc10.05 K-Ras G12D, read-out: 72 hr Cell Viability Panc10.05 (G12D)
How it was run: as §3

[15] = system: phospho-ERK in A375 (Wild-type); test: In-Cell Western phospho-ERK, A375; settings: Homo sapiens, A-375, 1 h; A375, one hour treatment; read-out: In-Cell Western A375 (Wild-type) Erk (P)
How it was run: as §1

[16] = system: HCT116-G31D; test: Viability assay (CellTiterBlue, 72 hr) HCT116; settings: Homo sapiens, HCT-116, GI50, CellTiterBlue, HCT116 K-Ras G13D, read-out: 72 hr Cell Viability HCT116 (G13D)
How it was run: as §3

Row | Structure (SMILES) | EC50 [1] [µM] | EC50 [2] [µM] | IC50 [3] [µM] | IC50 [4] [µM] | IC50 [5] [µM] | EC50 [6] [µM] | IC50 [7] [µM] | EC50 [8] [µM] | IC50 [9] [µM] | EC50 [10] [µM] | EC50 [11] [µM] | IC50 [12] [µM] | IC50 [13] [µM] | IC50 [14] [µM] | EC50 [15] [µM] | IC50 [16] [µM]
1 | COC(=O)CCCN1C(=O)CCc2cc(-c3csc(NC(=O)c4oc(C)nc4C)n3)ccc21 [Compound 100, methyl 4-(6-(2-(2,4-dimethyloxazole-5-carboxamido)thiazol-4-yl)-2-oxo-3,4-dihydroquinolin-1 (2H)-yl)butanoate] | 3 | 25 | 5.5 | > 25 | 9.5 | 17 | 4 | 7 | 5 | 5 | 3 | 3 | > 25 | 5 | 4 | > 25
2 | COCCCN1C(=O)CCc2cc(-c3csc(NC(=O)c4oc(C)nc4C)n3)ccc21 [Compound 96, N-(4-(1-(3-methoxypropyl)-2-oxo-1,2,3,4-tetrahydroquinolin-6-yl)thiazol-2-yl)-2,4-dimethyloxazole-5-carboxamide] | 1.1 | 4 | 5 | 4 | 12.1 | 7 | > 25 | 9 | 4 | 6 | 7 | > 25 | > 25 | 3 | 6 | 3
3 | Cc1nc(C)c(C(=O)Nc2nc(-c3ccc4c(c3)CCC(=O)N4CCN(C)C)cs2)o1 [Compound 97, N-(4-(1-(2-(dimethylamino)ethyl)-2-oxo-1,2,3,4-tetrahydroquinolin-6-yl)thiazol-2-yl)-2,4-dimethyloxazole-5-carboxamide] | 1.2 | 6 | 8.1 | 5 | 12.6 | 5 | > 25 | 12 | 9 | 10 | > 25 | > 25 | > 25 | 4 | 8 | 5
4 | Cc1nc(C2CCC2)oc1C(=O)Nc1nc(-c2ccc3c(c2)CCC(=O)N3Cc2cccnc2)cs1 [Compound 92, 2-cyclobutyl-4-methyl-N-(4-(2-oxo-1-(pyridin-3-ylmethyl)-1,2,3,4-tetrahydroquinolin-6-yl)thiazol-2-yl)oxazole-5-carboxamide] | 2 | – | 8.5 | 4 | 15.2 | 6 | > 25 | 17 | 6 | > 25 | 15 | > 25 | > 25 | 3 | > 25 | 1.5
5 | Cc1nc(C(C)C)sc1C(=O)Nc1nc(-c2ccc3c(c2)CCC(=O)N3Cc2cccnc2)cs1 [Compound 107, 2-isopropyl-4-methyl-N-(4-(2-oxo-1-(pyridin-3-ylmethyl)-1,2,3,4-tetrahydroquinolin-6-yl)thiazol-2-yl)thiazole-5-carboxamide] | 10 | > 25 | 6.6 | > 25 | 9.7 | 6 | 19 | > 25 | > 25 | > 25 | 6 | > 25 | > 25 | 2 | 16 | 6
6 | CCc1nc(C)c(C(=O)Nc2nc(-c3ccc4c(c3)CCC(=O)N4Cc3cccnc3)cs2)s1 [Compound 106, 2-ethyl-4-methyl-N-(4-(2-oxo-1-(pyridin-3-ylmethyl)-1,2,3,4-tetrahydroquinoinolin-6-yl)thiazol-2-yl)thiazole-5-carboxamide] | 10 | 25 | 4.4 | > 25 | 9.6 | 5 | 22 | > 25 | 12 | > 25 | 7 | > 25 | > 25 | 3 | 20 | 6
7 | Cc1nc(C(C)C)oc1C(=O)Nc1nc(-c2ccc3c(c2)CCC(=O)N3Cc2cccnc2)cs1 [Compound 91] | 1.4 | 4 | 8.4 | 3 | 11.7 | 8 | > 25 | 12 | 5 | 5 | 11 | > 25 | > 25 | 2 | 5 | 1.5
8 | Cn1nc(C(C)(C)C)cc1C(=O)Nc1nc(-c2ccc3c(c2)CCC(=O)N3)cs1 [Compound 43, 3-(tert-butyl)-1-methyl-N-(4-(2-oxo-1,2,3,4-tetrahydroquinolin-6-yl)thiazol-2-yl)-1H-pyrazole-5-carboxamide] | > 25 | > 25 | > 25 | > 25 | > 25 | > 25 | > 25 | > 25 | > 25 | > 25 | 19 | > 25 | > 25 | > 25 | > 25 | > 25
9 | Cc1nn(C)cc1C(=O)Nc1nc(-c2ccc3c(c2)CCC(=O)N3Cc2cccnc2)cs1 [Compound 112, 1,3-dimethyl-N-(4-(2-oxo-1-(pyridin-3-ylmethyl)-1,2,3,4-tetrahydroquinolin-6-yl)thiazol-2-yl)-1H-pyrazole-4-carboxamide] | 1 | 5 | 10 | 4 | 10.7 | 4 | > 25 | 18 | 5 | 11 | 17 | > 25 | > 25 | 3 | 8 | 2
10 | CCn1nc(C)c(C(=O)Nc2nc(-c3ccc4c(c3)CCC(=O)N4Cc3cccnc3)cs2)c1C [Compound 114, 1-ethyl-3,5-dimethyl-N-(4-(2-oxo-1-(pyridin-3-ylmethyl)-1,2,3,4-tetrahydroquinolin-6-yl)thiazol-2-yl)-1H-pyrazole-4-carboxamide] | 1.9 | 17 | 3 | > 25 | 6 | 1.1 | 6 | 17 | 22 | > 25 | 4 | > 25 | > 25 | 1.1 | 5 | 5
